This passage reports Activity and IC50 results from ChEMBL document CHEMBL4184256, “Synthesis and biological evaluation of longanlactone analogues as neurotrophic agents” (Bioorg Med Chem Lett, 2018).

Experiment [1] concerns N2a. As to the kind of experiment: Neurotrophic activity in mouse Neuro2a cells assessed as increase in neurite length at 0.1 uM incubated for 48 hrs relative to untreated control. It is filed as functional.
The test system of experiment [2] is N2a. Kind of experiment: Neurotrophic activity in mouse Neuro2a cells assessed as increase in neurite length at 0.01 uM incubated for 48 hrs relative to untreated control. In kind it is functional.
Experiment [3] concerns N2a. Kind of experiment: Cytotoxicity in mouse Neuro2a cells assessed as reduction in cell viability by MTT assay. In kind it is cell-based.
Experiment [4] concerns N2a. Kind of experiment: Neurotrophic activity in mouse Neuro2a cells assessed as increase in BDNF mRNA expression at 0.01 uM incubated for 2 hrs by RT-qPCR method relative to untreated control. A general note: Quantitative PCR measures a nucleic acid by following its amplification.
In experiment [5] the test system is N2a. Kind of experiment: Neurotrophic activity in mouse Neuro2a cells assessed as increase in NT3 mRNA expression at 0.01 uM incubated for 2 hrs by RT-qPCR method relative to untreated control.
Experiment [6] relates to N2a. As to the kind of experiment: Neurotrophic activity in mouse Neuro2a cells assessed as increase in BDNF mRNA expression at 0.1 uM incubated for 2 hrs by RT-qPCR method relative to untreated control.
For experiment [7], the system named is N2a. As to the kind of experiment: Neurotrophic activity in mouse Neuro2a cells assessed as increase in NT3 mRNA expression at 0.1 uM incubated for 2 hrs by RT-qPCR method relative to untreated control.

Molecules are shown by their SMILES. Calls of active or inactive are those of the source. The calls are words filed in the database; no cut-off is given here.

One may read the IC50 as the point on the concentration scale where inhibition reaches its midpoint. As for `CC(=O)c1cccn1[C@H]1C[C@H](Cc2cn([C@H]3C[C@H](n4cc(C)c(=O)[nH]c4=O)O[C@@H]3CO)nn2)OC1=O`, the Activity is reported as 14.8% in the experiment with N2a [1] and 9.52% in the experiment with N2a [2]. Besides, the IC50 with N2a [3] worked out at 95.8 µM.

In the case of `C#CC[C@@H]1C[C@H](n2cccc2C(=O)C(F)(F)F)C(=O)O1`, the Activity in the experiment on N2a [1] was 41.02%; in the experiment on N2a [2], 33.74%. In addition, the outcome in the experiment with N2a [4] was Active. For the same compound, in the experiment with N2a [5], the outcome was inactive. Further, the IC50 in the experiment on N2a [3] was > 100 µM.

As to `C#CC[C@H]1C[C@H](n2cccc2C(=O)CC)C(=O)O1`, the results for the Activity in the experiment with N2a [1] and in the experiment with N2a [2] were 9.5% and 4.63%, respectively. The IC50 with N2a [3] is 40.7 µM.

In the case of `C#CC[C@@H]1C[C@H](n2cccc2C(=O)CC)C(=O)O1`, the values for the Activity with N2a [1] and with N2a [2] were 9.47% and 11.63%, respectively. The IC50 in the experiment with N2a [3] turned out to be 40.6 µM.

On to `C#CC[C@H]1C[C@H](n2cccc2C(=O)C(F)(F)F)C(=O)O1`, for which the Activity came to 22.22% in the experiment with N2a [1] and 7.76% in the experiment with N2a [2]. For the same compound, in the experiment with N2a [3], the IC50 was 97.8 µM.

Turning to `CC(=O)c1cccn1[C@H]1C[C@@H](Cc2cn(Cc3ccccc3)nn2)OC1=O`, the Activity with N2a [1] was 15.62%; with N2a [2] it was 5.41%. Moreover, the IC50 with N2a [3] was found to be 91.6 µM.

Consider `C#CC[C@@H]1C[C@H](n2cccc2)C(=O)O1`, for which the Activity is listed as 10.9% in the experiment on N2a [1] and 6.56% in the experiment with N2a [2]. In the experiment with N2a [3], the IC50 is ≥ 100 µM.

For the compound `C#CC[C@H]1C[C@H](n2cccc2)C(=O)O1`, the values for the Activity in the experiment with N2a [1] and with N2a [2] were 14.56% and 12.15%, respectively. For the same compound, the IC50 in the experiment with N2a [3] is > 100 µM.

As for `CC(=O)c1cccn1[C@H]1C[C@@H](Cc2cn([C@H]3C[C@H](n4cc(C)c(=O)[nH]c4=O)O[C@@H]3CO)nn2)OC1=O`, the results for the Activity with N2a [1] and in the experiment with N2a [2] were 6.61% and 3.67%, respectively. Moreover, the IC50 with N2a [3] came out at 96.2 µM.

`C#CC[C@@H]1C[C@H](n2cccc2C(C)=O)C(=O)O1`: the result with N2a [6] was Active. Also, the Activity with N2a [1] is 37.01%; in the experiment with N2a [2], 8.03%. Also, the outcome in the experiment on N2a [7] was inactive. In addition, the IC50 in the experiment on N2a [3] was 121 µM.

Regarding `CC(=O)c1cccn1[C@H]1C[C@@H](CC#Cc2ccc([N+](=O)[O-])cc2)OC1=O`, the Activity in the experiment on N2a [1] was 9.11%; in the experiment with N2a [2] it was -7.58%. Also, in the experiment on N2a [3], the IC50 is > 100 µM.

Turning to `CC(=O)c1cccn1[C@H]1C[C@H](CC#Cc2ccc([N+](=O)[O-])cc2)OC1=O`, the results for the Activity in the experiment with N2a [1] and with N2a [2] were 13.27% and 1.43%, respectively. Also, the IC50 in the experiment with N2a [3] was > 100 µM.

Turning to `C#CC[C@H]1C[C@H](n2cccc2C(C)=O)C(=O)O1`, the Activity is given as 20.95% in the experiment with N2a [1] and 9.04% in the experiment with N2a [2]. In the experiment with N2a [3], the IC50 was > 100 µM.

Regarding `CC(=O)c1cccn1[C@H]1C[C@H](Cc2cn(Cc3ccccc3)nn2)OC1=O`, the Activity with N2a [1] was 17.02%; with N2a [2] it was -2.23%. The IC50 in the experiment on N2a [3] was found to be 66.9 µM.
